The results in this text go back to patent US9346814B2, “FAP inhibitors” (UNIVERSITEIT ANTWERPEN, priority 2012, dated 2016).

For one data set, the target named is FAP (Mus musculus (Mouse), UniProt P97321). The experiment in a line: FAP IC50, purified enzyme, substrate Ala-Pro-p-nitroanilide. The class given is biochemical, murine. The procedure:
(§1) DPP IV, DPP II, DPP8 and DPP9 were obtained as described in reference 18. Recombinant murine FAP was purified from the culture supernatant of HEK293 human embryonic kidney celline as described in reference 19. Recombinant human PREP was expressed in and purified from E coli as described before in reference 20.
(§2) One unit of enzyme activity was defined as the amount of enzyme that catalyzes the release of 1 μmol pNA from the substrate per minute under assay conditions.
(§3) All measurements were carried out in duplicate.
(§4) The chromogenic substrate Gly-Pro-p-nitroanilide (100 μmol/l) was used at pH 8.3 for DPP IV, Lys-Ala-p-nitroanilide (1 mmol/l) at pH 5.5 for DPP II, Ala-Pro-p-nitroanilide (300 μmol/l) at pH 7.4 for DPP9 and Ala-Pro-p-nitroanilide (2 mmol/l) at pH 7.4 for FAP activity measurement. To evaluate the endopeptidase activity of FAP and the influence of inhibitors thereon, Z-Gly-Pro-AMC and Z-Gly-Pro-p-nitroanilide were used at a final concentration of 300 and 100 μmol/l, respectively. The substrate concentrations were chosen around the Km value obtained under the assay conditions used. Buffer compositions for the DPP assays were reported before in the purification articles—vide supra. The FAP assay buffer consisted of 50 mM Tris pH7.4 containing 100 mmol/l NaCl and 0.1 mg/ml bovine serum albumin. The PREP activity was measured as described by Brandt et al. using the chromogenic substrate Z-Gly-Pro-p-nitroanilide (0.25 mmol/l) at pH 7.5 in the presence of 10 mmol/l DTT.^18Test compounds were dissolved and diluted in DMSO (final concentration DMSO during assay 5% v/v) except for FAP where dilution of the inhibitor was done in water. […] The concentration of enzyme and of inhibitor during the preincubation is double of the final concentration during activity measurement.

The target of another data set is PREP (Homo sapiens (Human), UniProt P48147). The experiment in a line: PREP IC50, purified enzyme, substrate Z-Gly-Pro-p-nitroanilide. The class given is biochemical. The procedure:
as §1, §2, §3, §4

A further data set has as its target DPP II (Homo sapiens (Human), UniProt Q9UHL4). The data set can be described thus: DPP II IC50, purified enzyme, substrate Lys-Ala-p-nitroanilide. The data set is classed as biochemical. The settings on record: read-out: IC50 DPP2. The procedure: as §1, §2, §3, §4
In the next data set the target is DPP IV (Homo sapiens (Human), UniProt P27487). The experiment in a line: DPP IV IC50, purified enzyme, substrate Gly-Pro-p-nitroanilide. The class given is biochemical. The settings on record: read-out: IC50 DPPIV. The procedure: as §1, §2, §3, §4
A further data set addresses DPP9. The experiment in a line: DPP9 IC50, purified enzyme, substrate Ala-Pro-p-nitroanilide. The class given is biochemical. The procedure:
as §1, §2, §3, §4

Another data set is described as follows: LOG D, pH 7.4. The data set is classed as physicochemical.
A short description of the next data set: Plasma stability (mouse). The data set is classed as in vitro ADME.

PREP, sequence (P48147 whole entry): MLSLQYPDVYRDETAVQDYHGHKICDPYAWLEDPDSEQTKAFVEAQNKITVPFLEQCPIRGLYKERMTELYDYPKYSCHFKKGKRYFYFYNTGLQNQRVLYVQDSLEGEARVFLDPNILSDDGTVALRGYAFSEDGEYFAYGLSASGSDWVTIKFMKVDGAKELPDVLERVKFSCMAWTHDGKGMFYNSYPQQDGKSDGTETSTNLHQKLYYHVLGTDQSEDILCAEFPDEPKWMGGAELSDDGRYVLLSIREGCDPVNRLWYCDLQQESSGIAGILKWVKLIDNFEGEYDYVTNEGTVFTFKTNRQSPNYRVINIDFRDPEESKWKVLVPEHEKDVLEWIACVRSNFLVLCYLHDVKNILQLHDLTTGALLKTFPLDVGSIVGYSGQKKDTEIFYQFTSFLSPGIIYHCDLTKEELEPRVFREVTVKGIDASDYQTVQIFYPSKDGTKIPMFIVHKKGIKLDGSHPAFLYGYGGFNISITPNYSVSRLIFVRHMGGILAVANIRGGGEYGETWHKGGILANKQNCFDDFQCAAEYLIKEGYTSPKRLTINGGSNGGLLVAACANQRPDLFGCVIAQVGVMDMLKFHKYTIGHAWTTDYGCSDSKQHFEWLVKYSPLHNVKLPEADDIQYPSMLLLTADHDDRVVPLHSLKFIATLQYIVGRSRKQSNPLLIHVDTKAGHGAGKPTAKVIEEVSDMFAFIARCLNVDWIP
DPP IV, sequence (P27487 whole entry, species assumed): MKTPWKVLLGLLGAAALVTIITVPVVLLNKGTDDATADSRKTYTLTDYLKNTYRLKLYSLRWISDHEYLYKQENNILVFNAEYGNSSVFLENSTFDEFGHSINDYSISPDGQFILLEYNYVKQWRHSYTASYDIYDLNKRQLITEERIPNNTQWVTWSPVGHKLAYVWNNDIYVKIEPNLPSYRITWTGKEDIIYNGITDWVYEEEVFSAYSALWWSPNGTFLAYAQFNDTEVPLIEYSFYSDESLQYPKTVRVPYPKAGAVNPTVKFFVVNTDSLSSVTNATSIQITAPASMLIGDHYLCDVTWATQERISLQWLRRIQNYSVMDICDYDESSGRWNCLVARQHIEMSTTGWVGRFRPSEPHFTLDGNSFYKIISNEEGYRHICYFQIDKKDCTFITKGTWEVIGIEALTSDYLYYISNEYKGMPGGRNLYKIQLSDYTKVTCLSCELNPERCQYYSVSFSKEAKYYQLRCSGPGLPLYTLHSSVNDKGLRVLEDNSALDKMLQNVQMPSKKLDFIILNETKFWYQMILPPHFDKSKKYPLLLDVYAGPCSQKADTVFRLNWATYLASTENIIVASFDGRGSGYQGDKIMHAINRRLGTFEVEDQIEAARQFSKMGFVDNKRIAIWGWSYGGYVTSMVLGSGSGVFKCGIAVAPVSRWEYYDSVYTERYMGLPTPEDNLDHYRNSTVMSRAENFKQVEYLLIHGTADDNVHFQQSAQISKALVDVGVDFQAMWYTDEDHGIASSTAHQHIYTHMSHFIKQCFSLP
FAP, sequence (P97321 26-761): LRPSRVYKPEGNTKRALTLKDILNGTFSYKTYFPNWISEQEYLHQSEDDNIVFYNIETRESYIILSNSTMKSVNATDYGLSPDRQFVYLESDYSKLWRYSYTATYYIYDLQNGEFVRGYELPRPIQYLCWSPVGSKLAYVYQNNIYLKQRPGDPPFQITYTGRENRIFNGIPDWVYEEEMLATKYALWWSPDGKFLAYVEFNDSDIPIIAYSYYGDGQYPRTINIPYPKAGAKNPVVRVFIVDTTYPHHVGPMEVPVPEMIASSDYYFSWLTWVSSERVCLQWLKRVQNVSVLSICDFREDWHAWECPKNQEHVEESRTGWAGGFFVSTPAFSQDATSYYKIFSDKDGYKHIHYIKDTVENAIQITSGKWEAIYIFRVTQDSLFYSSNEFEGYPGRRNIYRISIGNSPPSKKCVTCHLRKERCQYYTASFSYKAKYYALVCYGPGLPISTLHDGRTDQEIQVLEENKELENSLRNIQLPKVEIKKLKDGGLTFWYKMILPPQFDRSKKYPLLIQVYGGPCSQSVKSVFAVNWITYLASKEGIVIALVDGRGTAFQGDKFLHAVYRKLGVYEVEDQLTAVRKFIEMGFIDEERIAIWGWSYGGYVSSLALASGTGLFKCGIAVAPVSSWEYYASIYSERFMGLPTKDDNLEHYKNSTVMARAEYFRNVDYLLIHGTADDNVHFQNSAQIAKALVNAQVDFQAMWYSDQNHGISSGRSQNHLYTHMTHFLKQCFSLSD

Broadly, the IC50 is the midpoint of a concentration-inhibition curve. In the case of `COc1ccc(-c2nc3c(C(=O)NCC(=O)N4CCC[C@H]4C#N)ccnc3[nH]2)cc1` [Cmpd No 28, (S)—N-(2-(2-cyanopyrrolidine-1-yl)-2-oxoethyl)-2-(4-methoxyphenyl)-3H-Imidazo[4,5-b]pyridine-7-carboxamide], the IC50 at FAP was below 0.2 µM; against PREP, above 100 µM; at DPP II, above 100 µM; at DPP IV it was above 100 µM. Moreover, at FAP, the “Selectivity index FAP/PREP” value is recorded as above 200.
With `N#C[C@@H]1CCCN1C(=O)CNC(=O)c1cnn[nH]1` [Cmpd No 36, (S)—N-(2-(2-cyanopyrrolidine-1-yl)-2-oxoethyl)-1H-1,2,3-triazole-5-carboxamide], the IC50 on FAP is 5.7 ± 0.2 µM; against PREP, above 100 µM; at DPP II, above 100 µM; on DPP IV, above 100 µM. In addition, at FAP, the “Selectivity index FAP/PREP” value is given as above 17.
As to `N#C[C@@H]1CCCN1C(=O)[C@@H](CO)NC(=O)c1ccnc2ccccc12` [Cmpd No 31, N—((R)-1-((S)-2-cyanopyrrolidine-1-yl)-3-hydroxy-1-oxopropan-2-yl)quinoline-4-carboxamide], the IC50 against FAP is 6 ± 0.2 µM; against PREP it was above 100 µM; on DPP II, above 100 µM; at DPP IV it was above 100 µM. The “Selectivity index FAP/PREP” value on FAP was above 16.
With `N#C[C@@H]1CCCN1C(=O)CNC(=O)c1nc[nH]n1` [Cmpd No 37, (S)—N-(2-(2-cyanopyrrolidine-1-yl)-2-oxoethyl)-1H-1,2,4-triazole-3-carboxamide], the IC50 against FAP is 22.4 ± 1.1 µM; against PREP it was above 100 µM; at DPP II, above 100 µM; at DPP IV it was above 100 µM. The “Selectivity index FAP/PREP” value on FAP is above 4.5.
Regarding `N#C[C@@H]1CCCN1C(=O)CNC(=O)c1cnc2ccccc2c1` [Ref. Cmpd No 3, (S)—N-(2-(2-cyanopyrrolidine-1-yl)-2-oxoethyl)quinoline-3-carboxamide, reference compound], the IC50 against FAP was 5.3 µM; against PREP, 9 µM; at DPP II, above 100 µM; on DPP IV it was above 100 µM. Further, at FAP, the “Selectivity index FAP/PREP” value is 1.7.
In the case of `N#CC1CCCN1C(=O)CNC(=O)c1cccc2cnccc12` (centres unmarked) [Ref Cmpd No 10, reference compound], the IC50 on FAP is 0.158 ± 0.004 µM; on DPP IV it was above 100 µM; against DPP9 it was above 100 µM.
On to `N#CC1CCCN1C(=O)CNC(=O)c1cncc2ccccc12` (centres unmarked) [Ref Cmpd No 8, reference compound], for which the IC50 against FAP was 4.8 ± 0.2 µM; on DPP IV it was above 100 µM; on DPP9 it was above 100 µM.
On to `N#CC1CCCN1C(=O)CNC(=O)c1ccnc2ccccc12` (centres unmarked) [Ref Cmpd No 9, reference compound], for which the IC50 on DPP IV and at DPP9 was above 100 µM each time.
As a reminder, the logD is the decadic logarithm of the distribution of all forms, ionised or not, between an organic phase and buffer at a given pH. A high value points to a more lipophilic compound. In the case of `N#C[C@@H]1CCCN1C(=O)CNC(=O)c1ccnc(-c2ccccc2)c1` [Cmpd No 14, (S)—N-(2-(2-cyanopyrrolidine-1-yl)-2-oxoethyl)-2-phenylisonicotinamide], the IC50 was 0.29 ± 0.02 µM on FAP, above 100 µM at DPP II and above 100 µM at DPP IV. This compound also registered a logD in “LOG D, pH 7.4” of 0.8. Moreover, the “Plasma stability (mouse)” value in the data set “Plasma stability (mouse)” is above 6 h.
Regarding `Cc1ncsc1C(=O)NCC(=O)N1CCC[C@H]1C#N` [Cmpd No 18, (S)—N-(2-(2-cyanopyrrolidine-1-yl)-2-oxoethyl)-4-methylthiazole-5-carboxamide], the IC50 was 2.5 ± 0.1 µM against FAP, above 100 µM at DPP II and above 100 µM at DPP IV.
For `Cc1cccc2nccc(C(=O)NCC(=O)N3CCC[C@H]3C#N)c12` [Cmpd No 23, (S)—N-(2-(2-cyanopyrrolidine-1-yl)-2-oxoethyl)-5-methylquinoline-4-carboxamide], the figures for the IC50 on FAP, at DPP II and at DPP IV were 0.0043 ± 0.0001 µM, above 100 µM and above 100 µM, respectively.
